# Results from US8883841B2, “Oncogenic ras-specific cytotoxic compound and methods of use thereof” (The Board of Regents of the University of Texas System, priority 2005, dated 2014).
# Where two headings read alike, the source gives them in different places.
# Assays:
# TK-10 = assay: NCI in-vitro testing, TK-10 (Renal Cancer)
# HOP-92 = assay: NCI in-vitro testing, HOP-92 (Non-Small Cell Lung Cancer)
# OVCAR-4 = assay: NCI in-vitro testing, OVCAR-4 (Ovarian Cancer)
# SNB-19 = assay: NCI in-vitro testing, SNB-19 (CNS Cancer)
# 786-0 = assay: NCI in-vitro testing, 786-0 (Renal Cancer)
# Ovcar443 = assay: Cell viability, Ovcar443 ovary cancer cells; format: cell-based
# OVCAR-3 = assay: NCI in-vitro testing, OVCAR-3 (Ovarian Cancer)
# SN12C = assay: NCI in-vitro testing, SN12C (Renal Cancer)
# A498 = assay: NCI in-vitro testing, A498 (Renal Cancer); conditions: A498
structure (smiles),measurement,setting,value
"OCc1cn(Cc2ccc(Cl)cc2)c2ccccc12 [Oncrasin K060, 1H-Indole-3-methanol, 1-[(4-chlorophenyl)methyl]-]",GI50,"TK-10; Homo sapiens, TK-10",0.0153 µM
same,CC50,"TK-10; Homo sapiens, TK-10, read-out: LC50",> 100 µM
same,GI50,"TK-10; Homo sapiens, TK-10, read-out: Log10 GI50 (converted)",0.0151 µM
same,TGI,TK-10; TK-10,8.94E−8 Molar
same,Percent Growth,"TK-10; TK-10, Log10 Concentration −4.0 Molar",−18%
same,Percent Growth,"TK-10; TK-10, Log10 Concentration −5.0 Molar",−8%
same,Percent Growth,"TK-10; TK-10, Log10 Concentration −6.0 Molar",−10%
same,Percent Growth,"TK-10; TK-10, Log10 Concentration −7.0 Molar",−3%
same,Percent Growth,"TK-10; TK-10, Log10 Concentration −8.0 Molar",82%
same,TGI,HOP-92; HOP-92,2.39E−5 Molar
same,Percent Growth,"HOP-92; HOP-92, Log10 Concentration −4.0 Molar",−60%
same,Percent Growth,"HOP-92; HOP-92, Log10 Concentration −5.0 Molar",34%
same,Percent Growth,"HOP-92; HOP-92, Log10 Concentration −6.0 Molar",88%
same,Percent Growth,"HOP-92; HOP-92, Log10 Concentration −7.0 Molar",81%
same,Percent Growth,"HOP-92; HOP-92, Log10 Concentration −8.0 Molar",97%
same,GI50,"HOP-92; Homo sapiens, HOP-92",5.17 µM
same,CC50,"HOP-92; Homo sapiens, HOP-92, read-out: LC50",77.6 µM
same,GI50,"HOP-92; Homo sapiens, HOP-92, read-out: Log10 GI50 (converted)",5.13 µM
same,GI50,"OVCAR-4; Homo sapiens, OVCAR-4",0.34 µM
same,CC50,"OVCAR-4; Homo sapiens, OVCAR-4, read-out: LC50",> 100 µM
same,GI50,"OVCAR-4; Homo sapiens, OVCAR-4, read-out: Log10 GI50 (converted)",0.339 µM
same,TGI,OVCAR-4; OVCAR-4,1.80E−5 Molar
same,Percent Growth,"OVCAR-4; OVCAR-4, Log10 Concentration −4.0 Molar",−29%
same,Percent Growth,"OVCAR-4; OVCAR-4, Log10 Concentration −5.0 Molar",10%
same,Percent Growth,"OVCAR-4; OVCAR-4, Log10 Concentration −6.0 Molar",31%
same,Percent Growth,"OVCAR-4; OVCAR-4, Log10 Concentration −7.0 Molar",71%
same,Percent Growth,"OVCAR-4; OVCAR-4, Log10 Concentration −8.0 Molar",94%
same,GI50,"SNB-19; Homo sapiens, SNB-19",17.6 µM
same,CC50,"SNB-19; Homo sapiens, SNB-19, read-out: LC50",> 100 µM
same,GI50,"SNB-19; Homo sapiens, SNB-19, read-out: Log10 GI50 (converted)",17.8 µM
same,TGI,SNB-19; SNB-19,5.69E−5 Molar
same,Percent Growth,"SNB-19; SNB-19, Log10 Concentration −4.0 Molar",−24%
same,Percent Growth,"SNB-19; SNB-19, Log10 Concentration −5.0 Molar",74%
same,Percent Growth,"SNB-19; SNB-19, Log10 Concentration −6.0 Molar",91%
same,Percent Growth,"SNB-19; SNB-19, Log10 Concentration −7.0 Molar",97%
same,Percent Growth,"SNB-19; SNB-19, Log10 Concentration −8.0 Molar",103%
same,TGI,786-0; 786-0,2.19E−5 Molar
same,Percent Growth,"786-0; 786-0, Log10 Concentration −4.0 (Molar)",−52%
same,Percent Growth,"786-0; 786-0, Log10 Concentration −5.0 (Molar)",27%
same,Percent Growth,"786-0; 786-0, Log10 Concentration −6.0 (Molar)",76%
same,Percent Growth,"786-0; 786-0, Log10 Concentration −7.0 (Molar)",88%
same,Percent Growth,"786-0; 786-0, Log10 Concentration −8.0 (Molar)",99%
same,GI50,"786-0; Homo sapiens, 786-0",34 µM
same,CC50,"786-0; Homo sapiens, 786-0, read-out: LC50",94.7 µM
same,GI50,"786-0; Homo sapiens, 786-0, read-out: Log10 GI50 (converted)",3.39 µM
same,IC50,Ovcar443,2.51 µM
same,GI50,"OVCAR-3; Homo sapiens, OVCAR-3",0.569 µM
same,CC50,"OVCAR-3; Homo sapiens, OVCAR-3, read-out: LC50",69.1 µM
same,GI50,"OVCAR-3; Homo sapiens, OVCAR-3, read-out: Log10 GI50 (converted)",0.575 µM
same,TGI,OVCAR-3; OVCAR-3,1.03E−5 Molar
same,Percent Growth,"OVCAR-3; OVCAR-3, Log10 Concentration −4.0 Molar",−60%
same,Percent Growth,"OVCAR-3; OVCAR-3, Log10 Concentration −5.0 Molar",1%
same,Percent Growth,"OVCAR-3; OVCAR-3, Log10 Concentration −6.0 Molar",42%
same,Percent Growth,"OVCAR-3; OVCAR-3, Log10 Concentration −7.0 Molar",77%
same,Percent Growth,"OVCAR-3; OVCAR-3, Log10 Concentration −8.0 Molar",95%
same,TGI,SN12C,1.94E−5 Molar
same,GI50,SN12C; Homo sapiens,3.56 µM
same,CC50,"SN12C; Homo sapiens, read-out: LC50",87.2 µM
same,GI50,"SN12C; Homo sapiens, read-out: Log10 GI50 (converted)",3.55 µM
same,Percent Growth,SN12C; Log10 Concentration −4.0 Molar,−68%
same,Percent Growth,SN12C; Log10 Concentration −5.0 Molar,27%
same,Percent Growth,SN12C; Log10 Concentration −6.0 Molar,78%
same,Percent Growth,SN12C; Log10 Concentration −7.0 Molar,93%
same,Percent Growth,SN12C; Log10 Concentration −8.0 Molar,97%
same,TGI,A498,3.33E−8 Molar
